# Reference: US5457106A, “Pyridine derivatives, their production and use” (Takeda Chemical Industries, Ltd., priority 1991, dated 1995)
# Where a name gives a salt, the structure may show the parent alone.
# Target: T1, cyclooxygenase (Rattus norvegicus, UniProt Q63921)
# T1 construct: from tissue; host or cells: platelets in platelet-rich plasma from rat abdominal aorta blood (Jcl:wistar, male)
# T1 sequence (Q63921 27-602): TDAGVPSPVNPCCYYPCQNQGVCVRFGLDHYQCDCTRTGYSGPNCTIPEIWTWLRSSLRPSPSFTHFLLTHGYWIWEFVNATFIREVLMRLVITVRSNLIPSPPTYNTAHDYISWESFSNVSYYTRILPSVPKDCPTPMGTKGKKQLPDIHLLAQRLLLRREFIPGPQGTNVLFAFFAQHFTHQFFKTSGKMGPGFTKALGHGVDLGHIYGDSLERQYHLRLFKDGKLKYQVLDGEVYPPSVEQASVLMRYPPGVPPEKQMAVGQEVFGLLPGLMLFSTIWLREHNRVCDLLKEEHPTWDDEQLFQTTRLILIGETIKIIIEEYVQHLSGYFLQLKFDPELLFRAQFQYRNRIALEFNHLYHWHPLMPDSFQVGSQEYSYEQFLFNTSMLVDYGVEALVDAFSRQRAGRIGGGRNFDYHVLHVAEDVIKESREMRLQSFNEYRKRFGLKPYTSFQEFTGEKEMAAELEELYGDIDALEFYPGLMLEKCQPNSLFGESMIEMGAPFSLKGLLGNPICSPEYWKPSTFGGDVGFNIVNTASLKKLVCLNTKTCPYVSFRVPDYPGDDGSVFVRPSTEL
# Assay: Cyclooxygenase inhibitory activity (HHT formation from arachidonic acid in rat platelet-rich plasma)
# Format: cell-based, rat (Jcl:wistar)
# Conditions: not given
row,Compound,IC50 [µM]
1,"O=C1c2ccccc2CN1CCCSc1ccncc1 [Example 111, 4-[3-(isoindolin-1-on-2-yl)propylthio]pyridine]",7
2,"O=C(NCCCSc1ccncc1)c1ccccc1 [Example 40, 4-[3-(benzoylamino)propylthio]pyridine]",7.6
3,CCCCCCCCCC(=O)NCCCOc1ccncc1 [Example 88],1.2
4,"Cl.O=C(c1ccccc1)N(CCCSc1ccncc1)Cc1cccs1 [Example 93, 4-[3-(N-(2-thienylmethyl)benzoylamino)propylthio]pyridine hydrochloride]",6.3
5,"O=C1c2ccccc2C(=O)N1CCCOc1ccncc1 [Example 83, 4-(3-phthalimidopropyloxy)pyridine]",10
6,"O=C1c2ccccc2C(=O)N1CCCCOc1ccncc1 [Example 84, 4-(4-phthalimidobutyloxy)pyridine]",4.5
7,"CC(=O)N(CCCSc1ccncc1)Cc1ccccc1.Cl [Example 76, 4-[3-(N-benzyl-N-acetylamino)propylthio]pyridine hydrochloride]",13
8,"O=C(NCCCOc1ccncc1)c1cc2ccccc2s1 [Example 85, 4-[3-(thianaphtene-2-carbonylamino)propyloxy]pyridine]",1.4
9,"O=C(c1ccccc1)N(CCCSc1ccncc1)Cc1ccccn1 [Example 81, 4-[3-(N-2-pyridylmethyl-N-benzoylamino)propylthio]pyridine]",6.8
10,"Cc1ccsc1C(=O)NCCCSc1ccncc1 [Example 60, 4-[3-(3-methylthenoylamino)propylthio]pyridine]",4.2
11,"CN(CCCSc1ccncc1)C(=O)c1cccs1 [Example 51, 4-[3-(N-methyl-2-thenoylamino)propylthio]pyridine]",8.9
12,"O=C(N(CCCSc1ccncc1)Cc1ccccn1)C(F)(F)F [Example 78, 4-[3-(N-2-pyridylmethyl-N-trifluoroacetylamino)propylthio] pyridine dihydrochloride]",5.2
13,"O=C(NCCCSc1ccncc1)c1ccc(-c2ccccc2)cc1 [Example 26, 4-[3-(4-phenylbenzoylamino)propylthio]pyridine hydrochloride]",3.5

# Test system: ART (antigen-responding T-cell)
# Assay: In vitro ART (antigen-responding T-cell) proliferation test
# Format: cell-based, Lewis rat
# Conditions: 1 μM
row,Compound,% Inhibition of ART growth [%]
1,"CC(=O)N(CCCSc1ccncc1)Cc1cccs1.Cl [Example 91, 4-[3-(N-(2-thienylmethyl)-N-acetylamino)-propylthio]pyridine hydrochloride]",44
2,"CC(=O)N(CCCSc1ccncc1)Cc1ccccc1.Cl [Example 76, 4-[3-(N-benzyl-N-acetylamino)propylthio]pyridine hydrochloride]",3

# Same assay, conditions: 10 μM
row,Compound,% Inhibition of ART growth [%]
1,"CC(=O)N(CCCSc1ccncc1)Cc1cccs1.Cl [Example 91, 4-[3-(N-(2-thienylmethyl)-N-acetylamino)-propylthio]pyridine hydrochloride]",42
2,"CC(=O)N(CCCSc1ccncc1)Cc1ccccc1.Cl [Example 76, 4-[3-(N-benzyl-N-acetylamino)propylthio]pyridine hydrochloride]",38

# Same assay, conditions: Rattus norvegicus, T-cell, 1 μM; read-out: % Inhibition of ART growth
row,Compound,inhibition at 1 µM [%]
1,"O=C1c2ccccc2CN1CCCSc1ccncc1 [Example 111, 4-[3-(isoindolin-1-on-2-yl)propylthio]pyridine]",30
2,"Cl.O=C(c1ccccc1)N(CCCSc1ccncc1)Cc1cccs1 [Example 93, 4-[3-(N-(2-thienylmethyl)benzoylamino)propylthio]pyridine hydrochloride]",42
3,"CC(=O)N(CCCSc1ccncc1)Cc1ccccc1 [Example 75, 4-[3-(N-benzyl-N-acetylamino)propylthio]pyridine]",5
4,"CC(C)(C)C(=O)Nc1ncccc1SCN1C(=O)c2ccccc2C1=O [Example 74, 3-(phthalimidomethylthio)-2-pivaloylaminopyridine]",-3

# Same assay, conditions: Rattus norvegicus, T-cell, 10 μM; read-out: % Inhibition of ART growth
row,Compound,inhibition at 10 µM [%]
1,"O=C1c2ccccc2CN1CCCSc1ccncc1 [Example 111, 4-[3-(isoindolin-1-on-2-yl)propylthio]pyridine]",-12
2,"Cl.O=C(c1ccccc1)N(CCCSc1ccncc1)Cc1cccs1 [Example 93, 4-[3-(N-(2-thienylmethyl)benzoylamino)propylthio]pyridine hydrochloride]",11
3,"CC(=O)N(CCCSc1ccncc1)Cc1ccccc1 [Example 75, 4-[3-(N-benzyl-N-acetylamino)propylthio]pyridine]",45
4,"CC(C)(C)C(=O)Nc1ncccc1SCN1C(=O)c2ccccc2C1=O [Example 74, 3-(phthalimidomethylthio)-2-pivaloylaminopyridine]",52

# Test system: Mouse phenylquinone writhing
# Assay: Mouse phenylquinone writhing inhibitory activity
# Format: in vivo, mouse (Slc: ICR)
# Conditions: 50 mg/kg, orally
# Protocol: Mouse Phenylquinone Writhing Inhibitory Activity A Slc: ICR male mouse (4 weeks, weight 17 to 24 g) was used. A test compound suspended in 5% gum arabic solution was administered orally. After 30 minutes, 0.1 ml/10 g body weight of 0.02% phenylquinone solution in water (dissolved by the aid of 5% ethanol) was injected intraperitoneally, and writhing and stretching responses of individual animals were measured for 20 minutes [Siegmund, E., Cadmus, R. and Lu, G.; Proc. Soc. exp. Biol. Med. 95, (1957)].
row,Compound,Inhibitory percentage (phenylquinone writhing) [%]
1,"Cl.O=C(c1ccccc1)N(CCCSc1ccncc1)Cc1cccs1 [Example 93, 4-[3-(N-(2-thienylmethyl)benzoylamino)propylthio]pyridine hydrochloride]",41
2,"CC(=O)N(CCCSc1ccncc1)Cc1cccs1.Cl [Example 91, 4-[3-(N-(2-thienylmethyl)-N-acetylamino)-propylthio]pyridine hydrochloride]",52
3,"CC(=O)N(CCCSc1ccncc1)Cc1ccccc1.Cl [Example 76, 4-[3-(N-benzyl-N-acetylamino)propylthio]pyridine hydrochloride]",61
4,"O=C(c1ccccc1)N(CCCSc1ccncc1)Cc1ccccn1 [Example 81, 4-[3-(N-2-pyridylmethyl-N-benzoylamino)propylthio]pyridine]",75
5,"O=C(c1ccccc1)N(CCCSc1ccncc1)Cc1cccs1 [Example 92, 4-[3-(N-(2-thienylmethyl)-N-benzoylamino)propylthio]pyridine]",74

# Same assay, conditions: Mus musculus, po, 20 min, 50 mg/kg, orally; read-out: Inhibitory percentage (phenylquinone writhing)
row,Compound,inhibition in vivo at 50 mg/kg [%]
1,"O=C1c2ccccc2CN1CCCSc1ccncc1 [Example 111, 4-[3-(isoindolin-1-on-2-yl)propylthio]pyridine]",64
2,"O=C(NCCCSc1ccncc1)c1ccccc1 [Example 40, 4-[3-(benzoylamino)propylthio]pyridine]",45
3,"O=C1c2ccccc2C(=O)N1CSc1ccccn1 [Example 64, 2-(phthalimidomethylthio)pyridine]",56
4,CCCCCCCCCC(=O)NCCCOc1ccncc1 [Example 88],41
5,"O=C1c2ccccc2C(=O)N1CCCOc1ccncc1 [Example 83, 4-(3-phthalimidopropyloxy)pyridine]",59
6,"CC(=O)N(CCCSc1ccncc1)Cc1ccccc1 [Example 75, 4-[3-(N-benzyl-N-acetylamino)propylthio]pyridine]",54
7,"O=C1c2ccccc2C(=O)N1CCCCOc1ccncc1 [Example 84, 4-(4-phthalimidobutyloxy)pyridine]",84
8,"CC(C)(C)C(=O)Nc1ncccc1CCN1C(=O)c2ccccc2C1=O.Cl [Example 71, 3-[2-(phthalimido)ethyl]-2-(pivaloylamino)pyridine hydrochloride]",55
9,"O=C(NCCCOc1ccncc1)c1cc2ccccc2s1 [Example 85, 4-[3-(thianaphtene-2-carbonylamino)propyloxy]pyridine]",70
10,"Cc1ccsc1C(=O)NCCCSc1ccncc1 [Example 60, 4-[3-(3-methylthenoylamino)propylthio]pyridine]",41
11,"CN(CCCSc1ccncc1)C(=O)c1cccs1 [Example 51, 4-[3-(N-methyl-2-thenoylamino)propylthio]pyridine]",72
12,"O=C(NCCCOc1ccncc1)c1cccs1 [Example 89, 4-[3-(2-thenoylamino)propyloxy]pyridine]",62
13,"O=C(N(CCCSc1ccncc1)Cc1ccccn1)C(F)(F)F [Example 78, 4-[3-(N-2-pyridylmethyl-N-trifluoroacetylamino)propylthio] pyridine dihydrochloride]",55
14,"CC(C)(C)C(=O)Nc1ncccc1SCN1C(=O)c2ccccc2C1=O [Example 74, 3-(phthalimidomethylthio)-2-pivaloylaminopyridine]",51
15,"O=C(NCCCSc1ccncc1)c1ccc(-c2ccccc2)cc1 [Example 26, 4-[3-(4-phenylbenzoylamino)propylthio]pyridine hydrochloride]",67
16,"CC(=O)N(CCCSc1ccncc1)Cc1ccccn1 [Example 79, 4-[3-(N-2-pyridylmethyl-N-acetylamino)propylthio]pyridine]",48

# Test system: Rat carrageenin pedal edema
# Assay: Rat carrageenin pedal edema inhibitory activity
# Format: in vivo, rat (Jcl: SD)
# Conditions: 50 mg/kg, orally, 3 hours after carrageenin
# Protocol: Rat Carrageenin Pedal Edema Inhibitory Activity A Jcl: SD male rat (6 weeks old, weight 160-220 g) was used. After the mesurement of the volume of the dexter hind limb foot pad, a test compound suspended in 5% gum arabic solution was administered orally. Immediately after the administration, water was further administered orally so that the total administration volume of liquid became 5 ml/rat. After one hour, 0.05 ml of 1% carrageenin suspension in physiological saline was injected subcutaneously in the foot pad to induce edema [Winter, […]. and Nuss, G. W.: Proc. Soc. exp. […] Three hours after injection of carrageenin, the volume of the dexter limb was measured, and the edema volume was calculated by the difference between the volume after injection and the volume prior to injection.
row,Compound,Inhibitory percentage (carrageenin pedal edema) [%]
1,4-(4-isobutyrylpiperidylthio)pyridine [Example 136],33

# Same assay, conditions: Rattus norvegicus, po, 3 h, 50 mg/kg, orally, 3 hours after carrageenin; read-out: Inhibitory percentage (carrageenin pedal edema)
row,Compound,inhibition in vivo at 50 mg/kg [%]
1,"O=C1CCC(=O)N1CCCCSc1ccncc1 [Example 143, 4-(4-succinimidobutylthio)pyridine]",27
2,"O=C(NCCCCSc1ccncc1)c1ccccc1 [Example 127, 4-[4-(benzoylamino)butylthio]pyridine]",32
3,"O=C(NCCCSc1ccncc1)c1ccc(Cl)cc1 [Example 29, 4-[3-(4-chlorobenzoylamino)propylthio]pyridine hydrochloride]",25
4,O=C(c1cccs1)N1CCC(Sc2ccncc2)CC1 [Example 132],45
5,"O=C1SC(=Cc2ccccc2)C(=O)N1CSc1ccncc1 [Example 159, 4-(5-benzylidene-2,4-thiazolidinedione)methylthiopyridine]",25

# Test system: brewer's yeast induced pyrexia
# Assay: Antipyretic activity (brewer's yeast induced pyrexia)
# Format: in vivo, rat (DS line)
# Conditions: 50 mg/kg, orally
# Protocol: Antipyretic Activity Six male DS line rats, 7 weeks old, weighing 200 to 240 g (Nihon Clea) per one group were used. According to the method of Winder et al. (J. Pharmac. Exp. Ther. 138: 405 (1963)), a suspension of 15% brewer's yeast (Sigma) in physiological saline (1 ml/100 g, b.w.) was injected subcutaneously at 16 hours before measurement of the body temperature to induce pyrexia. After injection of yeast, only water was provided, and each rat was bred separately in a five duplicate cage. At 16, 17 and 18 hours after yeast injection, the rectal temperature was measured by a thermistor thermometer (Takara Kogyo K.K.), and this was taken as the basal body temperature. […] Animals having the body temperature of not lower than 38.5° C. at 18 hours after yeast injection were selected, and a test compound was administered orally (1 ml/100 g, b.w.). As a control, only the solvent was provided. Upon administration, the body temperature of the control group and that of the test compound-administered group were adjusted to the same temperature. The rectal temperature was measured every hour till five hours after administration.
row,Compound,"Antipyretic activity, peak time [h]"
1,"O=C1c2ccccc2CN1CCCSc1ccncc1 [Example 111, 4-[3-(isoindolin-1-on-2-yl)propylthio]pyridine]",2
2,"O=C(NCCCSc1ccncc1)c1ccccc1 [Example 40, 4-[3-(benzoylamino)propylthio]pyridine]",3
3,"O=C1c2ccccc2C(=O)N1CSc1ccccn1 [Example 64, 2-(phthalimidomethylthio)pyridine]",3
4,"O=C1c2ccccc2C(=O)N1CCCOc1ccncc1 [Example 83, 4-(3-phthalimidopropyloxy)pyridine]",2
5,"O=C1c2ccccc2C(=O)N1CCCCOc1ccncc1 [Example 84, 4-(4-phthalimidobutyloxy)pyridine]",3
6,"CC(C)(C)C(=O)Nc1ncccc1CCN1C(=O)c2ccccc2C1=O.Cl [Example 71, 3-[2-(phthalimido)ethyl]-2-(pivaloylamino)pyridine hydrochloride]",2
7,"O=C(NCCCOc1ccncc1)c1cc2ccccc2s1 [Example 85, 4-[3-(thianaphtene-2-carbonylamino)propyloxy]pyridine]",2
8,"O=C(NCCCOc1ccncc1)c1cccs1 [Example 89, 4-[3-(2-thenoylamino)propyloxy]pyridine]",3

# Same assay, conditions: 50 mg/kg, orally, at peak time
row,Compound,"Antipyretic activity, .increment. °C. [°C]"
1,"O=C1c2ccccc2CN1CCCSc1ccncc1 [Example 111, 4-[3-(isoindolin-1-on-2-yl)propylthio]pyridine]",-0.68
2,"O=C(NCCCSc1ccncc1)c1ccccc1 [Example 40, 4-[3-(benzoylamino)propylthio]pyridine]",-2.00
3,"O=C1c2ccccc2C(=O)N1CSc1ccccn1 [Example 64, 2-(phthalimidomethylthio)pyridine]",-2.58
4,"O=C1c2ccccc2C(=O)N1CCCOc1ccncc1 [Example 83, 4-(3-phthalimidopropyloxy)pyridine]",-0.82
5,"O=C1c2ccccc2C(=O)N1CCCCOc1ccncc1 [Example 84, 4-(4-phthalimidobutyloxy)pyridine]",-0.97
6,"CC(C)(C)C(=O)Nc1ncccc1CCN1C(=O)c2ccccc2C1=O.Cl [Example 71, 3-[2-(phthalimido)ethyl]-2-(pivaloylamino)pyridine hydrochloride]",-0.52
7,"O=C(NCCCOc1ccncc1)c1cc2ccccc2s1 [Example 85, 4-[3-(thianaphtene-2-carbonylamino)propyloxy]pyridine]",-1.00
8,"O=C(NCCCOc1ccncc1)c1cccs1 [Example 89, 4-[3-(2-thenoylamino)propyloxy]pyridine]",-2.72
